Our source for the IC50 values is US20180244660A1, “CYCLOPROPYLDERIVATIVES AND THEIR USE AS KINASE INHIBITORS” (Karyopharm Therapeutics Inc., priority 2015, published 2018).

The test system of one experiment is 3T3 cells. The experiment is described as follows: MTT cell proliferation assay, 3T3 cells. Format: cell-based, mouse. As to conditions: Mus musculus, NIH3T3; 3T3 fibroblast cells; incubation approximately 64-72 hours. Here is the method:
(§1) The MTT cell proliferation assay was used to study the cytotoxic properties of the compounds. The assay was performed according to the method described by Roche Molecular Biochemicals, with minor modifications. The assay is based on the cleavage of the tetrazolium salt, MTT, in the presence of an electron-coupling reagent. The water-insoluble formazan salt produced must be solubilized in an additional step. Cells grown in a 96-well tissue culture plate were incubated with the MTT solution for approximately 4 hours. After this incubation period, a water-insoluble formazan dye formed. After solubilization, the formazan dye was quantitated using a scanning multi-well spectrophotometer (ELISA reader). […] The cells were seeded at 5,000-10,000 cells in each well of 96-well plate in 100 μL of fresh culture medium and were allowed to attach overnight. The stock solutions of the compounds were diluted in 100 μL cell culture medium to obtain eight concentrations of each test compound, ranging from 1 nM to 30 μM. […] All optical densities were measured at 490 nm using a Vmax Kinetic Microplate Reader (Molecular Devices). In most cases, the assay was performed in duplicate and the results were presented as a mean percent inhibition to the negative control+SE. The following formula was used to calculate the percent of inhibition: Inhibition (%)=(1−(ODo/OD))×100.
(§2) The compounds were tested against MS751, Z138 and 3T3 cells. The MS751 cell line is derived from a metastasis to lymph node of human cervix from a patient diagnosed with squameous cell carcinoma of the cervix. The Z138 cell line is a mature B-cell acute lymphoblastic leukemia cell line derived from a patient with chronic lumphocytic leukemia. 3T3 cells are standard fibroblast cells; they were originally isolated from Swiss mouse embryo tissue.

For the next experiment, the system named is Z138 cells. Put plainly: MTT cell proliferation assay, Z138 cells. The settings on record: Homo sapiens, Z-138, incubation approximately 64-72 hours. In kind it is cell-based, human. Here is the method:
as §1, §2
In general terms: Tetrazolium assays rely on reduction of a dye to a coloured formazan, in cell work by metabolically active cells.

The test system of another experiment is MS751 cells. Put plainly: MTT cell proliferation assay, MS751 cells. Format: cell-based, human. The settings on record: Homo sapiens, incubation approximately 64-72 hours, read-out: MTT Assay IC50 MS 751. Here is the method:
as §1, §2

Broadly, the IC50 is the midpoint of a concentration-inhibition curve. Regarding `Nc1ccc([C@H]2C[C@@H]2C(=O)NCc2cc3cc(-c4ccc(C(=O)N5CCNCC5)cc4)cc(-c4ccc(F)cc4)c3o2)cn1` (stereo in doubt) [Compound K027, (1S,2S)-2-(6-aminopyridin-3-yl)-N—((7-(4-fluorophenyl)-5-(4-(piperazine-1-carbonyl)phenyl)benzofuran-2-yl)methyl)cyclopropanecarboxamide], the concentration for half-maximal inhibition (IC50) in the experiment with 3T3 cells is > 10 µM; with Z138 cells, < 1 µM.

Consider `Nc1ccc(C2CC2C(=O)NCCCOc2cc(-c3ccc(C(=O)N4CCC(F)(F)CC4)cc3)cc(C(F)(F)F)c2)cn1` (centres unmarked) [Compound K002, 2-(6-aminopyridin-3-yl)-N—(3-(4′-(4,4-difluoropiperidine-1-carbonyl)-5-(trifluoromethyl)biphenyl-3-yloxy)propyl)cyclopropanecarboxamide], for which the IC50 in the experiment with 3T3 cells is 1 to 5 µM; in the experiment on Z138 cells it was < 1 µM; in the experiment on MS751 cells it was < 1 µM.

Consider `Nc1ccc(C2CC2C(=O)NCCOc2ccc(-c3ccc(C(=O)N4CCC(F)(F)CC4)cc3)cc2-c2ccc(F)cc2F)cn1` (centres unmarked) [Compound K003, 2-(6-aminopyridin-3-yl)-N—(2-(3-(2,4-difluorophenyl)-4′-(4,4-difluoropiperidine-1-carbonyl)biphenyl-4-yloxy)ethyl)cyclopropanecarboxamide], for which the 50% inhibitory concentration (IC50) in the experiment with 3T3 cells is 5 to 10 µM; in the experiment with Z138 cells, < 1 µM; in the experiment with MS751 cells, < 1 µM.

For the compound `Nc1ccc(C2CC2C(=O)NCc2cc3cc(-c4ccc(C(=O)N5CCC(F)(F)CC5)cc4F)cc(-c4ccc(F)cc4)c3o2)cn1` (centres unmarked) [Compound K004, 2-(6-aminopyridin-3-yl)-N—((5-(4-(4,4-difluoropiperidine-1-carbonyl)-2-fluorophenyl)-7-(4-fluorophenyl)benzofuran-2-yl)methyl)cyclopropanecarboxamide], the half-maximal inhibitory concentration (IC50) in the experiment with 3T3 cells was > 10 µM; with Z138 cells it was < 1 µM; in the experiment with MS751 cells, < 1 µM.

On to `Nc1ccc([C@H]2C[C@@H]2C(=O)NCCCOc2cc(-c3ccc(C(=O)N4CCC(F)(F)CC4)cc3)cc(C(F)(F)F)c2)cn1` [Compound K005, (1S,2S)-2-(6-aminopyridin-3-yl)-N—(3-(4′-(4,4-difluoropiperidine-1-carbonyl)-5-(trifluoromethyl)biphenyl-3-yloxy)propyl)cyclopropanecarboxamide], for which the IC50 in the experiment on 3T3 cells, with Z138 cells and in the experiment with MS751 cells was < 1 µM in each case.

On to `Nc1ccc([C@@H]2C[C@H]2C(=O)NCCCOc2cc(-c3ccc(C(=O)N4CCC(F)(F)CC4)cc3)cc(C(F)(F)F)c2)cn1` [Compound K006, (1R,2R)-2-(6-aminopyridin-3-yl)-N—(3-(4′-(4,4-difluoropiperidine-1-carbonyl)-5-(trifluoromethyl)biphenyl-3-yloxy)propyl)cyclopropanecarboxamide], for which the values for the IC50 with 3T3 cells, with Z138 cells and in the experiment on MS751 cells were 1 to 5 µM, < 1 µM and < 1 µM, respectively.

As to `Nc1ccc([C@H]2C[C@@H]2C(=O)NCc2cc3cc(-c4ccc(C(=O)N5CCC(F)(F)CC5)cc4)cc(C(F)(F)F)c3o2)cn1` [Compound K007, (1S,2S)-2-(6-aminopyridin-3-yl)-N—((5-(4-(4,4-difluoropiperidine-1-carbonyl)phenyl)-7-(trifluoromethyl)benzofuran-2-yl)methyl)cyclopropanecarboxamide], the IC50 was > 10 µM in the experiment with 3T3 cells, 1 to 5 µM in the experiment on Z138 cells and 1 to 5 µM in the experiment with MS751 cells.

As for `Nc1ccc([C@@H]2C[C@H]2C(=O)NCc2cc3cc(-c4ccc(C(=O)N5CCC(F)(F)CC5)cc4)cc(C(F)(F)F)c3o2)cn1` [Compound K008, (1R,2R)-2-(6-Aminopyridin-3-yl)-N—((5-(4-(4,4-difluoropiperidine-1-carbonyl)phenyl)-7-(trifluoromethyl)benzofuran-2-yl)methyl)cyclopropanecarboxamide], the half-inhibitory concentration (IC50) in the experiment with 3T3 cells is > 10 µM; in the experiment on Z138 cells, 1 to 5 µM; in the experiment with MS751 cells, > 10 µM.

With `Nc1ccc(C2CC2C(=O)NCc2ccc(-c3ccc(-c4ccc(C(=O)N5CCC(F)(F)CC5)cn4)cc3C(F)(F)F)o2)cn1` (centres unmarked) [Compound K009, 2-(6-aminopyridin-3-yl)-N—((5-(4-(5-(4,4-difluoropiperidine-1-carbonyl)pyridin-2-yl)-2-(trifluoromethyl)phenyl)furan-2-yl)methyl)cyclopropanecarboxamide], the half-maximal inhibitory concentration (IC50) in the experiment with 3T3 cells was 5 to 10 µM; in the experiment with Z138 cells, < 1 µM; in the experiment on MS751 cells, < 1 µM.

For `Nc1ccc([C@H]2C[C@@H]2C(=O)NCc2cc3cc(-c4ccc(C(=O)N5CCC(F)(F)CC5)cc4)cc(-c4ccc(F)cc4F)c3o2)cn1` [Compound K010, (1S,2S)-2-(6-aminopyridin-3-yl)-N—((7-(2,4-difluorophenyl)-5-(4-(4,4-difluoropiperidine-1-carbonyl)phenyl)benzofuran-2-yl)methyl)cyclopropanecarboxamide], the half-inhibitory concentration (IC50) with 3T3 cells was 1 to 5 µM; in the experiment with Z138 cells, < 1 µM; with MS751 cells it was < 1 µM.

`Nc1ccc([C@H]2C[C@@H]2C(=O)NCc2cc3cc(-c4ccc(C(=O)N5CCC(F)(F)CC5)cc4)cc(-c4ccc(F)cc4)c3o2)cn1` [Compound K011, (1S,2S)-2-(6-aminopyridin-3-yl)-N—((5-(4-(4,4-difluoropiperidine-1-carbonyl)phenyl)-7-(4-fluorophenyl)benzofuran-2-yl)methyl)cyclopropanecarboxamide]: the 50% inhibitory concentration (IC50) in the experiment on 3T3 cells is > 10 µM; in the experiment with Z138 cells it was < 1 µM; with MS751 cells it was < 1 µM.

Turning to `Nc1ccc([C@H]2C[C@@H]2C(=O)NCc2cc3cc(-c4ccc(C(=O)N5CCC(F)(F)CC5)cn4)cc(-c4ccc(F)cc4)c3o2)cn1` [Compound K012, (1S,2S)-2-(6-aminopyridin-3-yl)-N—((5-(5-(4,4-difluoropiperidine-1-carbonyl)pyridin-2-yl)-7-(4-fluorophenyl)benzofuran-2-yl)methyl)cyclopropanecarboxamide], the IC50 with 3T3 cells was 1 to 5 µM; with Z138 cells, < 1 µM; with MS751 cells, < 1 µM.

On to `Nc1ccc([C@H]2C[C@@H]2C(=O)NCc2cc3cc(-c4ccc(C(=S)N5CCC(F)(F)CC5)cc4)cc(-c4ccc(F)cc4)c3o2)cn1` [Compound K013, (1S,2S)-2-(6-aminopyridin-3-yl)-N—((5-(4-(4,4-difluoropiperidine-1-carbonothioyl)phenyl)-7-(4-fluorophenyl)benzofuran-2-yl)methyl)cyclopropanecarboxamide], for which the IC50 in the experiment with 3T3 cells is 1 to 5 µM; in the experiment on Z138 cells, < 1 µM; in the experiment with MS751 cells it was < 1 µM.

Regarding `Nc1ccc([C@H]2C[C@@H]2C(=O)NCc2cc3cc(-c4ccc(C(=O)N5CCC(F)(F)CC5)cc4)cc(-c4cccc(F)c4)c3o2)cn1` [Compound K014, (1S,2S)-2-(6-aminopyridin-3-yl)-N—((5-(4-(4,4-difluoropiperidine-1-carbonyl)phenyl)-7-(3-fluorophenyl)benzofuran-2-yl)methyl)cyclopropanecarboxamide], the half-inhibitory concentration (IC50) in the experiment with 3T3 cells is 1 to 5 µM; with Z138 cells, < 1 µM; in the experiment with MS751 cells it was < 1 µM.

For the compound `Nc1ccc([C@H]2C[C@@H]2C(=O)NCc2cc3cc(-c4ccc(C(=O)N5CCC(F)(F)CC5)cc4)cc(-c4ccc(F)cc4)c3s2)cn1` [Compound K015, (1S,2S)-2-(6-aminopyridin-3-yl)-N—((5-(4-(4,4-difluoropiperidine-1-carbonyl)phenyl)-7-(4-fluorophenyl)benzo[b]thiophen-2-yl)methyl)cyclopropanecarboxamide], the IC50 is > 10 µM in the experiment with 3T3 cells, 1 to 5 µM in the experiment on Z138 cells and 1 to 5 µM with MS751 cells.

In the case of `Nc1ccc([C@H]2C[C@@H]2C(=O)NCc2cc3cc(-c4ccc(C(=O)N5CC(Cl)C5)cc4)cc(-c4ccc(F)cc4)c3o2)cn1` [Compound K016, (1S,2S)-2-(6-aminopyridin-3-yl)-N—((5-(4-(3-chloroazetidine-1-carbonyl)phenyl)-7-(4-fluorophenyl)benzofuran-2-yl)methyl)cyclopropanecarboxamide], the IC50 in the experiment on 3T3 cells was 1 to 5 µM; in the experiment on Z138 cells, < 1 µM; with MS751 cells, < 1 µM.

For `Nc1ccc([C@H]2C[C@@H]2C(=O)NCc2cc3cc(-c4ccc(C(=O)N5CCC(F)(F)C5)cc4)cc(-c4ccc(F)cc4)c3o2)cn1` [Compound K017, (1S,2S)-2-(6-aminopyridin-3-yl)-N—((5-(4-(3,3-difluoropyrrolidine-1-carbonyl)phenyl)-7-(4-fluorophenyl)benzofuran-2-yl)methyl)cyclopropanecarboxamide], the results for the IC50 in the experiment with 3T3 cells, in the experiment on Z138 cells and with MS751 cells were 1 to 5 µM, < 1 µM and < 1 µM, respectively.

With `Nc1ccc([C@H]2C[C@@H]2C(=O)NCc2cc3cc(-c4ccc(C(=O)N5CC(F)(F)C5)cc4)cc(-c4ccc(F)cc4)c3o2)cn1` [Compound K018, (1S,2S)-2-(6-aminopyridin-3-yl)-N—((5-(4-(3,3-difluoroazetidine-1-carbonyl)phenyl)-7-(4-fluorophenyl)benzofuran-2-yl)methyl)cyclopropanecarboxamide], the IC50 with 3T3 cells was 1 to 5 µM; in the experiment with Z138 cells, < 1 µM; in the experiment with MS751 cells it was < 1 µM.
